DC50 data for eight compounds are collected here from US20230083015A1, “SMALL MOLECULE DEGRADERS OF STAT3” (THE REGENTS OF THE UNIVERSITY OF MICHIGAN, priority 2019, published 2023).

One experiment has as its target STAT3 (Homo sapiens, UniProt P40763). The experiment can be described thus: Estimated DC50 for STAT3 degradation in MOLM-16 cells (immunoblotting). It counts as cell-based. Set-up: In vitro cultured cells or xenograft tumors were lysed; endogenous in cells; host or cells: MOLM-16. To be noted: MOLM-16, 4 h; read-out: Estimated DC50 STAT3. The protocol:
(§1) FIG. 62 is a series of four images showing the fluorescent immunoblotting analysis of STAT1 and STAT3 protein in Molm-16 cells after treatment for 4 h with Cpd. Nos. 331, 296, 361, 362, 363, 364, 365, 366, and 367 at the concentrations indicated.
(§2) In vitro cultured cells or xenograft tumors were lysed 1× Cell Lysis Buffer (Cell Signaling Technology, #9803), resolved by SDS-PAGE NuPAGE gel (Thermo Fisher Scientific), and transferred to a PVDF membrane (Bio Rad). For chemiluminescence immunoblotting, membranes were blocked for 1 h using 5% Blotting-Grade Blocker (#1706404, Bio Rad) in 1× Tris-buffered saline with Tween 20 (TBST, Pierce). Antibodies used were: rabbit mAbs for STAT3 (Cell Signaling Technology, #4368, #12640) and p-STAT3 (Y705) (Cell Signaling Technology, #9245, #52075). HRP conjugated goat anti-rabbit IgG (H+L) (#A27036) secondary antibodies was from Thermo Fisher Scientific. GAPDH (Santa Cruz Technology, sc-47724HRP) and actin (Santa Cruz Technology, sc-8432HRP, sc-47778HRP) were loading controls. For fluorescent immunoblotting, membranes were blocked using Odyssey TBS Blocker Buffer (LI-COR). IRDye 680RD and 800CW Dye-labeled secondary antibodies (LI-COR) were used. The washed membranes were scanned using Odyssey CLx imager (LI-COR). The intensity of Western blot signaling was quantitated using the Odyssey software.
(§3) The estimated DC50 in MOLM-16 cells of representative Compounds of the Disclosure against STAT3 and STAT1 is provide in Table 5.

For the next experiment, the target named is T1, STAT1 (Homo sapiens, UniProt P42224).
T1 construct: In vitro cultured cells or xenograft tumors were lysed; endogenous in cells; host or cells: MOLM-16
T1 sequence (P42224 1-750): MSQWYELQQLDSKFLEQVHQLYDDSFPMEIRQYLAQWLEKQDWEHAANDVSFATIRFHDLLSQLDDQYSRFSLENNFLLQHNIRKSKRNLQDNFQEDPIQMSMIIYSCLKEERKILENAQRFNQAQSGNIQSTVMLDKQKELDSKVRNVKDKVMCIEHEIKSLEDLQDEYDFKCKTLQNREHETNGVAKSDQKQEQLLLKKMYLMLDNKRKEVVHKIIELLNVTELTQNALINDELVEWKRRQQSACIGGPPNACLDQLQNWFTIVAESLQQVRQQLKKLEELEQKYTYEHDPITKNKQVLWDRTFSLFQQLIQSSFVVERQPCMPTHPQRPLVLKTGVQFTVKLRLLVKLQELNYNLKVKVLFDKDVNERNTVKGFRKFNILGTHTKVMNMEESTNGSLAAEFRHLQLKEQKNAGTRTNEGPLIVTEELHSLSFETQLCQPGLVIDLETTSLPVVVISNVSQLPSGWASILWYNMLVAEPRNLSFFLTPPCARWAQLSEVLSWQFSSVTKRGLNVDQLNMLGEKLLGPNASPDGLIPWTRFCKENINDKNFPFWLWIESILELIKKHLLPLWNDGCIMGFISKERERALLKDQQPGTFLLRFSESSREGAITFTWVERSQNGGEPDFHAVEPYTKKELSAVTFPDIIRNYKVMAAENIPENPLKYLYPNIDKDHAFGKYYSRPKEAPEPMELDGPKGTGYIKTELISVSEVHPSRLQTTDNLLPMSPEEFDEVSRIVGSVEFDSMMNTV
Nature of the experiment: Estimated DC50 for STAT1 degradation in MOLM-16 cells (immunoblotting). It counts as cell-based. Conditions: MOLM-16, 4 h; read-out: Estimated DC50 STAT1. Here is the method: as §1, §2, §3

Chain of STAT3 (P40763 whole entry): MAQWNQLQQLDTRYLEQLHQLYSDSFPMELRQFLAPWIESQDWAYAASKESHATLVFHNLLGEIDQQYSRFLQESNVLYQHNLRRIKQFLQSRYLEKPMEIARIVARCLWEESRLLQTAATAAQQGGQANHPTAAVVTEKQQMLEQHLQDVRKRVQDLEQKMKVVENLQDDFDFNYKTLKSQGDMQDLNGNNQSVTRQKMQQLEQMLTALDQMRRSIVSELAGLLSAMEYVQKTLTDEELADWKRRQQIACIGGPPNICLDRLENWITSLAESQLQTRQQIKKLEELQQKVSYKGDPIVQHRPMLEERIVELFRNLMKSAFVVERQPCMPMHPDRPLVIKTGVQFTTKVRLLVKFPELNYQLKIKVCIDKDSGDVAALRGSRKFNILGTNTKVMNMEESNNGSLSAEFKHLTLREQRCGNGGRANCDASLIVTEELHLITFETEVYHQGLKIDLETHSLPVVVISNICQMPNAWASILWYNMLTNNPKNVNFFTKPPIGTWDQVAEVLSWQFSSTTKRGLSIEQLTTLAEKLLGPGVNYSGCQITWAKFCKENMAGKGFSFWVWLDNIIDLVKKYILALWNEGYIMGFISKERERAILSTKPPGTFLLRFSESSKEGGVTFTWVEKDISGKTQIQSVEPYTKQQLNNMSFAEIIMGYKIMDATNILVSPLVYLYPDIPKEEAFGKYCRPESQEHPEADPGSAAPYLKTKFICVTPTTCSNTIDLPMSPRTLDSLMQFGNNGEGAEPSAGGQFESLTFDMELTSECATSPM

The term DC50 denotes the concentration giving 50% degradation. With `NC(=O)CC[C@H](NC(=O)[C@@H]1CC[C@@H]2CCN(C(=O)CCCCCC#Cc3cccc4c3CN(C3CCC(=O)NC3=O)C4=O)C[C@H](NC(=O)c3cc4cc(C(F)(F)P(=O)(O)O)ccc4s3)C(=O)N21)C(=O)NC(Cc1ccccc1)Cc1ccccc1` (stereo partly drawn) [Cpd. No. 349, ((2-(((5S,8S,10aR)-8-(((S)-5-amino-1-((1,3-diphenylpropan-2-yl)amino)-1,5-dioxopentan-2-yl)carbamoyl)-3-(8-(2-(2,6-dioxopiperidin-3-yl)-1-oxoisoindolin-4-yl)oct-7-ynoyl)-6-oxodecahydropyrrolo[1,2-a][1,5]diazocin-5-yl)carbamoyl)benzo[b]thiophen-5-yl)difluoromethyl) phosphonic acid], the DC50 on STAT3 was 0.2 µM.

For `CCN1CC[C@H]2CC[C@@H](C(=O)N[C@@H](CCC(N)=O)C(=O)N[C@@H](Cc3ccc(S(=O)(=O)C4CC4)cc3)C(=O)N3CCC(CCC#Cc4cccc5c4CN(C4CCC(=O)NC4=O)C5=O)CC3)N2C(=O)[C@@H](NC(=O)c2cc3cc(C(F)(F)P(=O)(O)O)ccc3s2)C1` (stereo partly drawn) [Cpd. No. 353, ((2-(((5S,8S,10aR)-8-(((2S)-5-amino-1-(((2S)-3-(4-(cyclopropylsulfonyl)phenyl)-1-(4-(4-(2-(2,6-dioxopiperidin-3-yl)-1-oxoisoindolin-4-yl)but-3-yn-1-yl)piperidin-1-yl)-1-oxopropan-2-yl)amino)-1,5-dioxopentan-2-yl)carbamoyl)-3-ethyl-6-oxodecahydropyrrolo[1,2-a][1,5]diazocin-5-yl)carbamoyl)benzo[b]thiophen-5-yl)difluoromethyl)phosphonic Acid], the DC50 at STAT1 was 0.5 µM; at STAT3, below 0.25 µM. Take `CC(=O)N1CC[C@H]2CC[C@@H](C(=O)N[C@@H](CCC(N)=O)C(=O)N[C@@H](Cc3ccc(C(C)(C)C)cc3)C(=O)N3CCC(CCC#Cc4cccc5c4CN(C4CCC(=O)NC4=O)C5=O)CC3)N2C(=O)[C@@H](NC(=O)c2cc3cc(C(F)(F)P(=O)(O)O)ccc3s2)C1` (stereo partly drawn) [Cpd. No. 363, ((2-(((5S,8S,10aR)-3-acetyl-8-(((2S)-5-amino-1-(((2S)-3-(4-(tert-butyl)phenyl)-1-(4-(4-(2-(2,6-dioxopiperidin-3-yl)-1-oxoisoindolin-4-yl)but-3-yn-1-yl)piperidin-1-yl)-1-oxopropan-2-yl)amino)-1,5-dioxopentan-2-yl)carbamoyl)-6-oxodecahydropyrrolo [1,2-a][1,5]diazocin-5-yl)carbamoyl)benzo[b]thiophen-5-yl)difluoromethyl)phosphonic acid]: the DC50 at STAT1 and at STAT3 was below 0.25 µM each time. In the case of `CC(C)N1CC[C@H]2CC[C@@H](C(=O)N[C@@H](CCC(N)=O)C(=O)N[C@@H](Cc3ccc(C(C)(C)C)cc3)C(=O)N3CCC(CCC#Cc4cccc5c4CN(C4CCC(=O)NC4=O)C5=O)CC3)N2C(=O)[C@@H](NC(=O)c2cc3cc(C(F)(F)P(=O)(O)O)ccc3s2)C1` (stereo partly drawn) [Cpd. No. 364, ((2-(((5S,8S,10aR)-8-(((2S)-5-amino-1-(((2S)-3-(4-(tert-butyl)phenyl)-1-(4-(4-(2-(2,6-dioxopiperidin-3-yl)-1-oxoisoindolin-4-yl)but-3-yn-1-yl)piperidin-1-yl)-1-oxopropan-2-yl)amino)-1,5-dioxopentan-2-yl)carbamoyl)-3-isopropyl-6-oxodecahydropyrrolo[1,2-a][1,5]diazocin-5-yl)carbamoyl)benzo[b]thiophen-5-yl)difluoromethyl) phosphonic acid], the DC50 at STAT1 and on STAT3 was below 0.25 µM each time.

Take `CC(C)(C)c1ccc(C[C@H](NC(=O)[C@H](CCC(N)=O)NC(=O)[C@@H]2CC[C@@H]3CCN(CC(F)F)C[C@H](NC(=O)c4cc5cc(C(F)(F)P(=O)(O)O)ccc5s4)C(=O)N32)C(=O)N2CCC(CCC#Cc3cccc4c3CN(C3CCC(=O)NC3=O)C4=O)CC2)cc1` (stereo partly drawn) [Cpd. No. 362, ((2-(((5S,8S,10aR)-8-(((2S)-5-amino-1-(((2S)-3-(4-(tert-butyl)phenyl)-1-(4-(4-(2-(2,6-dioxopiperidin-3-yl)-1-oxoisoindolin-4-yl)but-3-yn-1-yl)piperidin-1-yl)-1-oxopropan-2-yl)amino)-1,5-dioxopentan-2-yl)carbamoyl)-3-(2,2-difluoroethyl)-6-oxodecahydropyrrolo[1,2-a][1,5]diazocin-5-yl)carbamoyl)benzo[b]thiophen-5-yl)difluoromethyl) phosphonic acid]: the DC50 on STAT1 and on STAT3 was below 0.25 µM throughout. Consider `CCN1CC[C@H]2CC[C@@H](C(=O)N[C@@H](CCNC(N)=O)C(=O)N[C@@H](Cc3ccc(C(C)(C)C)cc3)C(=O)N3CCC(CCC#Cc4cccc5c4CN(C4CCC(=O)NC4=O)C5=O)CC3)N2C(=O)[C@@H](NC(=O)c2cc3cc(C(F)(F)P(=O)(O)O)ccc3s2)C1` (stereo partly drawn) [compound 355, ((2-(((5S,8S,10aR)-8-(((2S)-1-(((2S)-3-(4-(tert-butyl)phenyl)-1-(4-(4-(2-(2,6-dioxopiperidin-3-yl)-1-oxoisoindolin-4-yl)but-3-yn-1-yl)piperidin-1-yl)-1-oxopropan-2-yl)amino)-1-oxo-4-ureidobutan-2-yl)carbamoyl)-3-ethyl-6-oxodecahydropyrrolo[1,2-a][1,5]diazocin-5-yl)carbamoyl)benzo[b]thiophen-5-yl)difluoromethyl)phosphonic acid], for which the DC50 at STAT1 and at STAT3 was above 1 µM throughout. For `CCN1CC[C@H]2CC[C@@H](C(=O)N[C@@H](CCC(N)=O)C(=O)N[C@@H](Cc3ccc(C(=O)NC4CCOCC4)cc3)C(=O)N3CCC(CCC#Cc4cccc5c4CN(C4CCC(=O)NC4=O)C5=O)CC3)N2C(=O)[C@@H](NC(=O)c2cc3cc(C(F)(F)P(=O)(O)O)ccc3s2)C1` (stereo partly drawn) [Cpd. No. 359, ((2-(((5S,8S,10aR)-8-(((2S)-5-amino-1-(((2S)-1-(4-(4-(2-(2,6-dioxopiperidin-3-yl)-1-oxoisoindolin-4-yl)but-3-yn-1-yl)piperidin-1-yl)-1-oxo-3-(4-((tetrahydro-2H-pyran-4-yl)carbamoyl)phenyl)propan-2-yl)amino)-1,5-dioxopentan-2-yl)carbamoyl)-3-ethyl-6-oxodecahydropyrrolo[1,2-a][1,5]diazocin-5-yl)carbamoyl)benzo[b]thiophen-5-yl)difluoromethyl)phosphonic Acid], the DC50 at STAT1 was above 1 µM; on STAT3 it was 1 µM. The matching figures for `CCN1CC[C@H]2CC[C@@H](C(=O)N[C@@H](CCC(N)=O)C(=O)N[C@@H](Cc3ccc(NS(=O)(=O)c4ccc(C5CCCCC5)cc4)cc3)C(=O)N3CCC(CCC#Cc4cccc5c4CN(C4CCC(=O)NC4=O)C5=O)CC3)N2C(=O)[C@@H](NC(=O)c2cc3cc(C(F)(F)P(=O)(O)O)ccc3s2)C1` (stereo partly drawn) [Cpd. No. 357, ((2-(((5S,8S,10aR)-8-(((2S)-5-amino-1-(((2S)-3-(4-((4-cyclohexylphenyl)sulfonamido)phenyl)-1-(4-(4-(2-(2,6-dioxopiperidin-3-yl)-1-oxoisoindolin-4-yl)but-3-yn-1-yl)piperidin-1-yl)-1-oxopropan-2-yl)amino)-1,5-dioxopentan-2-yl)carbamoyl)-3-ethyl-6-oxodecahydropyrrolo[1,2-a][1,5]diazocin-5-yl)carbamoyl)benzo[b]thiophen-5-yl)difluoromethyl) phosphonic acid]: above 1 µM and 0.5 µM.
